From ChEMBL document CHEMBL1201862, “PubChem BioAssay data set” (2004)
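Compound exposure: 48 hours, 5 concentrations, 96-well plates. GI50 is the concentration that inhibits growth by half.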 Activity calls are given as the source filed them. Rule as the data show it: active = GI50 up to about 1.1 µM and inactive = higher.

What was measured:
Test in all cases: growth of human tumour cells (NCI), 48 h
786-0 = system: 786-0
A549 = system: A549
ACHN = system: ACHN
CAKI-1 = system: CAKI-1
CCRF-CEM = system: CCRF-CEM
COLO 205 = system: COLO 205
DLD-1 = system: DLD-1
DMS-114 = system: DMS-114
DMS-273 = system: DMS-273
EKVX = system: EKVX
HCC 2998 = system: HCC 2998
HCT-116 = system: HCT-116
HCT-15 = system: HCT-15
HL-60 = system: HL-60
HOP-18 = system: HOP-18
HOP-62 = system: HOP-62
HOP-92 = system: HOP-92
HT-29 = system: HT-29
IGROV-1 = system: IGROV-1
K562 = system: K562
KM-20L2 = system: KM-20L2
KM12 = system: KM12
LOX IMVI = system: LOX IMVI
LXFL 529 = system: LXFL 529
M14 = system: M14
M19-MEL = system: M19-MEL
MOLT-4 = system: MOLT-4
Malme-3M = system: Malme-3M
NCI-H226 = system: NCI-H226
NCI-H23 = system: NCI-H23
NCI-H460 = system: NCI-H460
NCI-H522 = system: NCI-H522
OVCAR-3 = system: OVCAR-3
OVCAR-4 = system: OVCAR-4
OVCAR-5 = system: OVCAR-5
OVCAR-8 = system: OVCAR-8
RXF 393 = system: RXF 393
SF-268 = system: SF-268
SF-295 = system: SF-295
SF-539 = system: SF-539
SK-MEL-28 = system: SK-MEL-28
SK-MEL-2 = system: SK-MEL-2
SK-MEL-5 = system: SK-MEL-5
SK-OV-3 = system: SK-OV-3
SN12C = system: SN12C
SNB-19 = system: SNB-19
SNB-78 = system: SNB-78
SR = system: SR
SW-620 = system: SW-620
TK-10 = system: TK-10
U-251 = system: U-251
UACC-257 = system: UACC-257
UACC-62 = system: UACC-62
UO-31 = system: UO-31
XF498 = system: XF498
Hs-578T = system: Hs-578T
MDA-MB-231 = system: MDA-MB-231
MDA-N = system: MDA-N
RPMI-8226 = system: RPMI-8226
A498 = system: A498
BT-549 = system: BT-549
DU-145 = system: DU-145
MCF7 = system: MCF7
MDA-MB-435 = system: MDA-MB-435
NCI/ADR-RES = system: NCI/ADR-RES
PC-3 = system: PC-3
SNB-75 = system: SNB-75
T47D = system: T47D

For `Cc1nc(Nc2ccccc2)sc1C(=O)CC(=O)C(=O)Nc1c(C(C)C)cccc1C(C)C`, the GI50 (786-0) was > 100 µM (inactive), the GI50 (A549) was > 100 µM (inactive) and the GI50 (ACHN) was 95.1 µM (inactive). The GI50 (CAKI-1) was 66.2 µM (inactive), the GI50 (CCRF-CEM) was 89.7 µM (inactive) and the GI50 (COLO 205) was > 100 µM (inactive). For the same compound, the GI50 (DLD-1) was 87.9 µM (inactive), the GI50 (DMS-114) was 81.7 µM (inactive) and the GI50 (DMS-273) was > 100 µM (inactive). For the same compound, the GI50 (EKVX) was 19.8 µM (inactive), the GI50 (HCC 2998) was > 100 µM (inactive) and the GI50 (HCT-116) was > 100 µM (inactive). The GI50 (HCT-15) was 98.9 µM, the GI50 (HL-60) was 67.9 µM (inactive) and the GI50 (HOP-18) was > 100 µM (inactive). The GI50 (HOP-62) was 97.7 µM (inactive), the GI50 (HOP-92) was 32.6 µM (inactive) and the GI50 (HT-29) was > 100 µM (inactive). The GI50 (IGROV-1) was > 100 µM (inactive), the GI50 (K562) was 83 µM (inactive) and the GI50 (KM-20L2) was 85.1 µM (inactive). For the same compound, the GI50 (KM12) was > 100 µM (inactive), the GI50 (LOX IMVI) was 43.2 µM (inactive) and the GI50 (LXFL 529) was 60 µM (inactive). For the same compound, the GI50 (M14) was > 100 µM (inactive), the GI50 (M19-MEL) was > 100 µM (inactive) and the GI50 (MOLT-4) was > 100 µM (inactive). For the same compound, the GI50 (Malme-3M) was > 100 µM (inactive), the GI50 (NCI-H226) was > 100 µM (inactive) and the GI50 (NCI-H23) was 85.5 µM (inactive). The GI50 (NCI-H460) was > 100 µM (inactive), the GI50 (NCI-H522) was > 100 µM (inactive) and the GI50 (OVCAR-3) was 97.9 µM (inactive). For the same compound, the GI50 (OVCAR-4) was > 100 µM (inactive), the GI50 (OVCAR-5) was > 100 µM (inactive) and the GI50 (OVCAR-8) was > 100 µM (inactive). The GI50 (RXF 393) was 42 µM (inactive), the GI50 (SF-268) was > 100 µM (inactive) and the GI50 (SF-295) was > 100 µM (inactive). For the same compound, the GI50 (SF-539) was > 100 µM (inactive), the GI50 (SK-MEL-28) was > 100 µM (inactive) and the GI50 (SK-MEL-2) was > 100 µM (inactive). For the same compound, the GI50 (SK-MEL-5) was > 100 µM (inactive), the GI50 (SK-OV-3) was > 100 µM (inactive) and the GI50 (SN12C) was > 100 µM (inactive). The GI50 (SNB-19) was > 100 µM (inactive), the GI50 (SNB-78) was > 100 µM (inactive) and the GI50 (SR) was 20.6 µM (inactive). The GI50 (SW-620) was > 100 µM (inactive), the GI50 (TK-10) was > 100 µM (inactive) and the GI50 (U-251) was > 100 µM (inactive). The GI50 (UACC-257) was > 100 µM (inactive), the GI50 (UACC-62) was 55.6 µM (inactive) and the GI50 (UO-31) was 78.5 µM (inactive). For the same compound, the GI50 (XF498) was > 100 µM (inactive).

`COc1ccc2c(c1)c[n+](C)c1c3cc(OC)c(OC)cc3ccc21` was tested, and the GI50 (A549) was 2.74 µM (inactive), the GI50 (CAKI-1) was 17.6 µM (inactive) and the GI50 (COLO 205) was 1.41 µM (inactive). The GI50 (DLD-1) was 4.86 µM (inactive), the GI50 (DMS-114) was 1.98 µM (inactive) and the GI50 (DMS-273) was 1.57 µM (inactive). The GI50 (HCT-15) was 24.9 µM, the GI50 (HOP-18) was 12.4 µM (inactive) and the GI50 (Hs-578T) was 2.23 µM (inactive). The GI50 (K562) was 2.04 µM (inactive), the GI50 (KM-20L2) was 4.84 µM (inactive) and the GI50 (LOX IMVI) was 1.95 µM (inactive). For the same compound, the GI50 (LXFL 529) was 1.96 µM (inactive), the GI50 (M19-MEL) was 6.44 µM (inactive) and the GI50 (MDA-MB-231) was 1.59 µM (inactive). The GI50 (MDA-N) was 2.5 µM (inactive), the GI50 (NCI-H522) was 1.67 µM (inactive) and the GI50 (OVCAR-3) was 4.16 µM (inactive). For the same compound, the GI50 (OVCAR-8) was 1.73 µM (inactive), the GI50 (RPMI-8226) was 1.75 µM (inactive) and the GI50 (SF-268) was 2.75 µM (inactive). For the same compound, the GI50 (SK-OV-3) was 9.4 µM (inactive), the GI50 (SN12C) was 2.91 µM (inactive) and the GI50 (SNB-19) was 4.78 µM (inactive). The GI50 (SNB-78) was 6.95 µM (inactive), the GI50 (SR) was 1.38 µM (inactive) and the GI50 (SW-620) was 1.55 µM (inactive). The GI50 (U-251) was 1.94 µM (inactive), the GI50 (UACC-62) was 11.3 µM (inactive) and the GI50 (XF498) was 4.23 µM (inactive).

`NC(=O)c1ncn2c(=O)n(CCCl)nnc12` [MITOZOLOMIDE] was tested, and the GI50 (786-0) was 28.8 µM (inactive), the GI50 (A498) was 191 µM (inactive) and the GI50 (A549) was 180 µM (inactive). The GI50 (ACHN) was 60.4 µM (inactive), the GI50 (BT-549) was 83.2 µM (inactive) and the GI50 (CAKI-1) was 107 µM (inactive). For the same compound, the GI50 (CCRF-CEM) was 32.9 µM (inactive), the GI50 (COLO 205) was 112 µM (inactive) and the GI50 (DLD-1) was 182 µM (inactive). For the same compound, the GI50 (DMS-114) was 19.8 µM (inactive), the GI50 (DMS-273) was 57.4 µM (inactive) and the GI50 (DU-145) was 123 µM (inactive). For the same compound, the GI50 (EKVX) was 197 µM (inactive), the GI50 (HCC 2998) was 172 µM (inactive) and the GI50 (HCT-116) was 132 µM (inactive). For the same compound, the GI50 (HCT-15) was 175 µM, the GI50 (HL-60) was 30.8 µM (inactive) and the GI50 (HOP-18) was 323 µM (inactive). For the same compound, the GI50 (HOP-62) was 29.5 µM (inactive), the GI50 (HOP-92) was 136 µM (inactive) and the GI50 (HT-29) was 156 µM (inactive). For the same compound, the GI50 (Hs-578T) was 208 µM (inactive), the GI50 (IGROV-1) was 132 µM (inactive) and the GI50 (K562) was 94.4 µM (inactive). The GI50 (KM-20L2) was 141 µM (inactive), the GI50 (KM12) was 180 µM (inactive) and the GI50 (LOX IMVI) was 22.8 µM (inactive). The GI50 (LXFL 529) was > 100 µM (inactive), the GI50 (M14) was 195 µM (inactive) and the GI50 (M19-MEL) was 172 µM (inactive). The GI50 (MCF7) was 120 µM (inactive), the GI50 (MDA-MB-231) was 220 µM (inactive) and the GI50 (MDA-MB-435) was 170 µM (inactive). For the same compound, the GI50 (MDA-N) was 137 µM (inactive), the GI50 (MOLT-4) was 45.2 µM (inactive) and the GI50 (Malme-3M) was 145 µM (inactive). For the same compound, the GI50 (NCI-H226) was 158 µM (inactive), the GI50 (NCI-H23) was 149 µM (inactive) and the GI50 (NCI-H460) was 50.2 µM (inactive). For the same compound, the GI50 (NCI-H522) was 131 µM (inactive), the GI50 (NCI/ADR-RES) was 168 µM (inactive) and the GI50 (OVCAR-3) was 205 µM (inactive). The GI50 (OVCAR-4) was 187 µM (inactive), the GI50 (OVCAR-5) was 225 µM (inactive) and the GI50 (OVCAR-8) was 101 µM (inactive). The GI50 (PC-3) was 177 µM (inactive), the GI50 (RPMI-8226) was 229 µM (inactive) and the GI50 (RXF 393) was 160 µM (inactive). The GI50 (SF-268) was 31.6 µM (inactive), the GI50 (SF-295) was 37.7 µM (inactive) and the GI50 (SF-539) was 31 µM (inactive). For the same compound, the GI50 (SK-MEL-28) was 252 µM (inactive), the GI50 (SK-MEL-2) was 249 µM (inactive) and the GI50 (SK-MEL-5) was 156 µM (inactive). The GI50 (SK-OV-3) was 52.6 µM (inactive), the GI50 (SN12C) was 115 µM (inactive) and the GI50 (SNB-19) was 93.5 µM (inactive). The GI50 (SNB-75) was 50 µM (inactive), the GI50 (SNB-78) was 185 µM (inactive) and the GI50 (SR) was 47.3 µM (inactive). The GI50 (SW-620) was 135 µM (inactive), the GI50 (T47D) was 214 µM (inactive) and the GI50 (TK-10) was 229 µM (inactive). For the same compound, the GI50 (U-251) was 40.4 µM (inactive), the GI50 (UACC-257) was 159 µM (inactive) and the GI50 (UACC-62) was 24.7 µM (inactive). For the same compound, the GI50 (UO-31) was 236 µM (inactive) and the GI50 (XF498) was 12.1 µM (inactive).
